15 molecules from US20020091131A1, “Epoxysuccinamide derivatives” (priority 1997, published 2002) can be followed below.

One data set concerns the target T1, Cathepsin L (Rattus norvegicus, UniProt P07154).
T1 construct: Thus, a lysosome fraction was obtained; from tissue; host or cells: liver of male Wistar rat, crude lysosome fraction
Kind of data set: Cathepsin L inhibitory action (rat liver lysosome fraction, Z-Phe-Arg-MCA, in presence of CA-074). The format is biochemical. Conditions: pH 5.5, 30° C., with 10^-7 M CA-074, read-out: Cathepsin Inhibition (IC50) Cathepsin L. Here is the method:
(§1) Male rat of Wistar strain was killed by exsanguination and a ice-chilled physiological saline was introduced into portal vein for circulation Then, its liver was taken out. Thereafter, the following procedures were performed at 4°C.
(§2) The liver was minced by scissors. Five grams of minced liver were homogenized in a Potter type Teflon Homogenizer after addition of 9 volumes of 0.25 M sucrose. The homogenate was centrifuged at 800 G for 10 minutes. The resulting supernatant was further centrifuged at 12,000 G for 20 minutes. The precipitate was homogenized in 25 mL of 0.25 M sucrose, and then centrifuged at 12,000 G for 20 minutes. The resulting precipitate was further homogenized in 10 mL of 0.25 M sucrose. Thus, a lysosome fraction was obtained,
(§3) The lysosome fraction was diluted with 0.25M sucrose containing 0.336 of Triton X-100 for the use in the measurement of cathepsin L activity.
To 0.25 mL of a solution (pH: 5.5) containing 340 mM sodium acetate, 60 mM acetic acid, 4 mM EDTA and 8 mM dithiothreitol were added 0.1mL of the lysosome fraction, 5 μL of the test compound solution, and 0.545 mL of distilled water. The mixture was pre-incubated at 30° C. for 15 minutes. Thereafter, 0.1 mL of 50 μM by carbobenzoxy-L-phenylalanyl-L-arginine-4-methylcoumaryl-7-amide (Z-Phe-Arg-MCA) solution was added, and the reaction was started. The reaction was performed at 30° C. for 20 minutes, and then terminated by addition of 1mL of an aqueous solution (pH. 4.3) containing 100 mM sodium mono-chloroacetate, […] and 70 mM acetic acid The finally obtained solution was subjected to measurement of fluorescence strength (excitation wave-length: 380 nm, emission wavelength: 460 nm.
The Z-Phe-Arg-MCA is also decomposed by cathepsin B which is contained in the lysosome fraction.

A further data set addresses T2, Cathepsin B (Rattus norvegicus, UniProt P00787).
T2 construct: from tissue; host or cells: liver of male Wistar rat, crude lysosome fraction
Kind of data set: Cathepsin B inhibitory action (lysosome fraction, Z-Arg-Arg-MCA). The format is biochemical. Particulars: pH 6.0, 30° C., read-out: Cathepsin Inhibition (IC50) Cathepsin B. As to the method:
as §1, §2, §3
To 0.25 mL of a solution (pH: 6.0) containing 352 mM KH2PO4, 48 mM Na2HPO4, 5.32 mM EDTA·2Na and 10 mM L-cysteine were added 0.1 mL of the lysosome fraction, 5 μL of the test compound solution, and 0.545 mL of distilled water. The mixture was pre-incubated at 30° C. for 15 minutes. Thereafter, the reaction was started by the addition of 0.1 mL of a solution of 50 μM carbobenzoxy-L-arginine-L-arginine-4-methylcoumaryl-7-amide (Z-Arg-Arg-MCA, substrate). The reaction was performed at 30° C. for 20 minutes, and then terminated by addition of 1 mL of an aqueous solution (pH: 4.3) containing 100 mM sodium mono-chloroacetate, 30 mM sodium acetate and 70 mM acetic acid. The finally obtained solution was subjected to measurement of fluorescence strength (excitation wavelength: 380 nm, emission wavelength: 460 nm).

Data set [1] concerns rats grown with low calcium feed (bone resorption). Kind of data set: Bone resorption inhibitory activity by decrease of plasma calcium concentration in rats grown with low calcium feed. In kind it is in vivo, rat. Conditions: Wistar rats on low calcium feed, 6 hours after administration, vs non-administration group. As to the method: (1) If rats are grown with low calcium feed, its bone weight decreases. This is because calcium is left from bone by dissolution in blood (i.e., bone resorption) so as to maintain the calcium concentration in blood at a normal level. Therefore, compounds inhibiting bone resorption in the model adopted in this experiment inhibit dissolution of calcium in blood from bone to reduce the plasma calcium concentration. Thus, compounds of the invention were evaluated in their bone resorption inhibitory activity by measuring decrease of plasma calcium concentration in the following experiment (according to J. M. Delaisse et al., Biochem. Biophys. Res. Commun., 125, 441 (1984)
Rats of Wistar strain (age: 5 to 6 weeks) were grown with a low calcium content feed (Ca: 0.02S, available from Oriental Yeast Industries, Co., Ltd.) for one week to give bone resorption-enhanced condition A test compound was dissolved in aqueous 1 nethylcellulose solution (when the test compound was-hydrophobic, Tween 20, nonionic-surfactant, was added), and administered orally to the rat in a dosage of 0.2 mL/100 g (weight of rat) At 6 hours after the administration, blood was taken from tail vein of the rat Then, the plasma calcium concentration was measured by OCPC method,
The plasma calcium concentration decreasing activity (Ca decrease rate) of the test compound was calculated by the following equation:
Ca decrease rate (%)=100×(plasma calcium concentration at 6 hours after administration of test compound)−(plasma calcium concentration at the same time in non-administration group)/(plasma calcium concentration at the same time in non-administration group)

In the next data set the test system is ovariectomized rats. Briefly: Action on ovariectomized rats (postmenopausal osteoporosis model), bone density by p-QCT. In kind it is in vivo, rat. Particulars: ovariectomized SD female rats, 300 mg/kg once a day for 4 weeks; average ± SD; control 543.7 ± 31.4, false operation 658.8 ± 46.3; P < 0.01 vs control. Here is the method: The ovariectomized rats were employed as models of postmenopausal osteoporosis, for evaluating the compound of the invention. (2) Experimental Procedures
The ovaries on both sides were removed surgically in SD female rats (age; 13 weeks). From the next day, a test compound (compound of Example 5) was administered at 300 mg/kg to the rats once a day for 4 weeks (administration group: 8 rats). After the last administration was complete, the fourth vertebrae lumbale was taken out, and the total bone density was measured by means of p-QCT (Peripheral Bone Density-Measuring Apparatus) and compared with the bone density of the control group (7 rats). In addition, rats treated by false-operation were also subjected to the same measurement, […]

The subject of another data set is Rat adjuvant arthritis. Kind of data set: Action on rat adjuvant arthritis (hind paw volume). In kind it is in vivo. Particulars: Wistar rats, 300 mg/kg orally once a day for 21 days, untreated hind paw, significant vs control, risk <1%. Here is the method: Rat adjuvant arthritis which is considered as a model of rheumatoid arthritis of human being was employed for evaluation of the compound of the invention.
Male rats of Wistar strain (age: 5 weeks) were sensitized by subcutaneous injection of Mycobacterium Butyricum which was suspended in liquid paraffin into the right hind paw. From the next day, a test compound (the compound of the aforementioned Example 5) was orally administered at a dosage of 300 mg/kg once a day for 21 days (administration group: 8 rats). After the last administration was complete, a volume of the untreated hind paw was measured by means of Volume Differential Meter and compared with that of Control group (8 rats, non-administration group) In addition, a non-adjuvant treatment group (normal group: 8 rats) was subjected to the same measurement. Inhibition of expansion of the hind paw by the test compound (Inhibition rate) was calculated by the following equation:
Inhibition rate (%)=100×(administration group−control group)/(normal group−control group)

Setting [2] is: Rattus norvegicus, po, 15 mg/kg p.o., read-out: Measured Plasma Ca Concentration (Ca decrease rate).

T2 sequence (P00787 80-333): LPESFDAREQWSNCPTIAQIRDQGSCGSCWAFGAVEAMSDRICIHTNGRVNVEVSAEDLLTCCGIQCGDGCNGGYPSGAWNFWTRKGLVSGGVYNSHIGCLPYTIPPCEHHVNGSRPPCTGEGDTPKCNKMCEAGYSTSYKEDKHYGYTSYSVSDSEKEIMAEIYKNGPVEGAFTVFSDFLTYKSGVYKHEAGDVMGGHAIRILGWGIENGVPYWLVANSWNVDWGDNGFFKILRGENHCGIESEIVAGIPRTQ
T1 sequence (P07154 114-334): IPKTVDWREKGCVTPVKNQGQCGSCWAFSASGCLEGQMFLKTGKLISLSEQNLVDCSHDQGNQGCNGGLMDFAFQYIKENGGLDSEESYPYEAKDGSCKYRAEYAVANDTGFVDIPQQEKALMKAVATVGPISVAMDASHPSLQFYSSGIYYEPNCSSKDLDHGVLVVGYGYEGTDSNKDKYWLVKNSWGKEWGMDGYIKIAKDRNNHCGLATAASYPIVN

For orientation: IC50 means the point on the concentration scale where inhibition reaches its midpoint. Take `CC(C)C[C@@H](CO)NC(=O)[C@H]1O[C@@H]1C(=O)O` [Example 12, (2S,3S)-3-[[1-(S)-hydroxymethyl-3-methylbutyl]carbamoyl]-oxirane-2-carboxylic Acid]: the IC50 at Cathepsin L was 0.094 µM; on Cathepsin B, 0.1 µM.

With `CO[C@H](c1ccccc1)[C@H](CC(C)C)NC(=O)[C@H]1O[C@@H]1C(=O)OC(C)C` [Example 14, Isopropyl (2S,3S)-3-[[1-(S)-[α-(R)-methoxybenzyl]-3-methylbutyl]carbamoyl]oxirane-2-carboxylate], in data set [1] (Rattus norvegicus, po, 5 mg/kg p.o., read-out: Measured Plasma Ca Concentration (Ca decrease rate)), the change in vivo at 5 mg/kg is -9.9%.

For the molecule `CCOC(=O)[C@H]1O[C@@H]1C(=O)N[C@@H](CC(C)C)[C@H](OC(C)=O)c1ccccc1` [Example 13, Ethyl (2S,3S)-3-[[1(S)-[α-(R)-acetoxybenzyl]-3-methyl-butyl]carbamoyl]oxirane-2-carboxylate], the change in vivo at 15 mg/kg in data set [1] (setting [2]) was -14.7%.

With `CCOC(=O)[C@H]1O[C@@H]1C(=O)N[C@H](C(=O)c1ccccc1)C(C)C` [Example 8, Ethyl (2S,3S)-3-[[1-(S)-benzoyl-2-methylpropyl]-carbamoyl]oxirane-2-carboxylate], in data set [1] (setting [2]), the change in vivo at 15 mg/kg is -15.8%.

In the case of `CCOC(=O)[C@H]1O[C@@H]1C(=O)N[C@@H](CC(C)C)C(=O)c1ccccc1` [Example 7, Ethyl (2S,3S)-3-[[1-(S)-benzoyl-3-methylbutyl]carbamoyl]-oxirane-2-carboxylate], the change in vivo at 15 mg/kg in data set [1] (setting [2]) is -13.6%.

`O=C(O)[C@H]1O[C@@H]1C(=O)N[C@H](COCc1ccccc1)Cc1ccccc1` [Example 23]: the IC50 on Cathepsin L stood at 0.011 µM.

Turning to `CC(C)C[C@H](NC(=O)[C@H]1O[C@@H]1C(=O)O)[C@H](OCc1ccccc1)c1ccccc1` [Example 22, (2S,3S)-3-[[1-(S)-[α-(R)-(benzyloxy)benzyl]-3-methyl-butyl]carbamoyl]oxirane-2-carboxylic Acid], the values for the IC50 at Cathepsin L and at Cathepsin B were 0.0033 µM and 0.041 µM, respectively.

As to `CO[C@H](c1ccccc1)[C@H](CC(C)C)NC(=O)[C@H]1O[C@@H]1C(=O)O` [Example 11, (2S,3S)-3-[[1-(S)-[α-(R)-methoxybenzyl]-3-methylbutyl]-carbamoyl]oxirane-2-carboxylic Acid], the change in vivo at 15 mg/kg in data set [1] (setting [2]) was -17.3%. Moreover, the IC50 at Cathepsin L was 0.018 µM; on Cathepsin B it was 0.085 µM.

The melting point is the temperature of the solid-liquid transition. As for `CCOC(=O)[C@H]1O[C@@H]1C(=O)N[C@@H](CC(C)C)[C@H](OC)c1ccccc1` [Example 5, Ethyl (2S,3S)-3-[[1-(S)-[α-(R)-methoxybenzyl]-3-methyl-butyl]carbamoyl]oxirane-2-carboxylate], the melting point was in the range of 108 to 109 °C. In addition, the change in vivo at 15 mg/kg in data set [1] (setting [2]) was -20.4%. Moreover, the “Total bone density of the fourth vertebrae lumbale” value in the data set on ovariectomized rats came to 617.8 ± 37.9 mg/mL. Besides, the “Inhibition of expansion of the hind paw (Inhibition rate)” value in the data set on Rat adjuvant arthritis came out at 42%.

In the case of `CCC(C)[C@H](NC(=O)[C@H]1O[C@@H]1C(=O)O)[C@H](O)c1ccccc1` (stereo partly drawn) [Example 9, (2S,3S)-3-[[1-(S)-[α-(R)-hydroxybenzyl]-2-methylbutyl]carbamoyl]oxirane-2-carboxylic acid], the IC50 was 0.057 µM on Cathepsin L and 0.21 µM on Cathepsin B.

Turning to `CC(C)C[C@@H](COCc1ccccc1)NC(=O)[C@H]1O[C@@H]1C(=O)O` [Example 24, Sodium (2S,3S)-3-[[1-(S)-benzyloxymethyl-3-methylbutyl]-carbamoyl]oxirane-2-carboxylate], the values for the IC50 at Cathepsin L and at Cathepsin B were 0.0069 µM and 0.028 µM, respectively.

For the molecule `CC(C)C[C@H](NC(=O)[C@H]1O[C@@H]1C(=O)O)[C@H](O)c1ccccc1` [Example 2, (2S,3S)-3-[[1-(S)-[α-(R)-hydroxybenzyl]-3-methylbutyl]-carbamoyl]oxirane-2-carboxylic acid], the IC50 amounted to 0.011 µM at Cathepsin L and 0.12 µM at Cathepsin B.

As for `CCOC(=O)[C@H]1O[C@@H]1C(=O)N[C@H](COCc1ccccc1)CC(C)C` [Example 17, Ethyl (2S,3S)-3-[[1-(S)-benzyloxymethyl-3-methylbutyl]-carbamoyl]oxirane-2-carboxylate], in data set [1] (setting [2]), the change in vivo at 15 mg/kg was -15.4%.

For the molecule `CCOC(=O)[C@H]1O[C@@H]1C(=O)N[C@@H](CC(C)C)[C@H](O)c1ccccc1` [Example 1a, Ethyl (2S,3S)-3-[[1-(S)-[α-(R)-hydroxybenzyl]-3-methyl-butyl]carbamoyl]oxirane-2-carboxylate], in data set [1] (setting [2]), the change in vivo at 15 mg/kg is -12.5%.

As to `CCOC(=O)[C@H]1O[C@@H]1C(=O)N[C@H](COCC(C)C)CC(C)C` [Example 18a, Ethyl (2S,3S)-3-[[1-(S)-isobutoxyrethyl-3-methylbutyl]-carbamoyl]oxirane-2-carboxylate], in data set [1] (15 mg/kg p.o.), the “Measured Plasma Ca Concentration (Ca decrease rate)” value was −24.5%.
